According to ChEMBL document CHEMBL1140892, “Synthesis and evaluation of rifabutin analogs against Mycobacterium avium and H(37)Rv, MDR and NRP Mycobacterium tuberculosis” (Bioorg Med Chem, 2009):
In brackets after ≈: the same amount, converted by molar mass. Activity calls are given as the source filed them. The rule behind the calls is not given here.

Tests used:
[1] = system: Mycobacterium tuberculosis; experiment: Antimycobacterial activity against non-replicating Mycobacterium tuberculosis assessed as luciferase activity incubated for 8 days measured after 24 hrs of incubation by low oxygen recover assay; assay type: functional
[2] = Selectivity index, ratio of IC50 for african green monkey Vero cells to MIC for non-replicating Mycobacterium tuberculosis; assay type: functional
Vero = experiment: Cytotoxicity against african green monkey Vero cells after 72 hrs by MTS assay; assay type: cell-based; details: Chlorocebus sabaeus
[3] = system: Mycobacterium tuberculosis; experiment: Antimycobacterial activity against Mycobacterium tuberculosis H37Rv after 7 days by resazurin method; assay type: functional; details: 168 h
Mycobacterium avium [4] = experiment: Antimycobacterial activity against Mycobacterium avium 1581 at 0.4 mg/mL after 15 days relative to control; assay type: functional; details: for inhibition at 400 µg/mL: 360 h
[5] = system: Mycobacterium tuberculosis; experiment: Antimycobacterial activity against non-replicating Mycobacterium tuberculosis assessed as colony forming unit after 8 days; assay type: functional; details: 192 h
Mycobacterium avium [6] = experiment: Antimycobacterial activity against Mycobacterium avium 1581 at 0.2 mg/mL after 15 days relative to control; assay type: functional; details: 360 h
Mycobacterium avium [7] = experiment: Antimycobacterial activity against Mycobacterium avium 1581 at 0.1 mg/mL after 15 days relative to control; assay type: functional; details: 360 h
[8] = system: Mycobacterium tuberculosis; experiment: Antimycobacterial activity against Mycobacterium tuberculosis H37Rv infected in BALB/c mouse assessed as reduction of bacterial load in lungs at 5 mg/kg/day, intragastrically after 1 month relative to control; assay type: functional, organism-based
[9] = system: Mycobacterium tuberculosis; experiment: Antimycobacterial activity against Mycobacterium tuberculosis H37Rv infected in BALB/c mouse assessed as reduction of bacterial load in lungs at 25 mg/kg/day, intragastrically after 1 month relative to control; assay type: functional, organism-based
[10] = system: Mycobacterium tuberculosis; experiment: Antimycobacterial activity against Mycobacterium tuberculosis H37Rv infected in BALB/c mouse assessed as lungs affected by pneumonia at 25 mg/kg/day, intragastrically after 1 month by histopathology study relative to control; assay type: functional, organism-based

Q: Which MIC [1] does the source give for CO[C@H]1/C=C/O[C@@]2(C)Oc3c(C)c(O)c4c(c3C2=O)C2=NC3(CC[N+]([O-])(CC(C)C)CC3)NC2=C(NC(=O)/C(C)=C\C=C\[C@H](C)[C@H](O)[C@@H](C)[C@@H](O)[C@@H](C)[C@H](OC(C)=O)[C@@H]1C)C4=O (stereo partly specified) here?
A: 0.44 µM (≈ 0.38 µg/mL)

Q: What about the Selectivity ratio [2] of the same compound?
A: >82

Q: And the IC50 (Vero)?
A: > 35.8 µM

Q: What about the MIC [3] of the same compound?
A: 0.2 µg/mL (≈ 0.232 µM)

Q: What about the Activity (Mycobacterium avium [4]) of the same compound?
A: inactive

Q: And the MBC [5]?
A: 0.28 µM (≈ 0.242 µg/mL)

Q: For CO[C@H]1/C=C/O[C@@]2(C)Oc3c(C)c(O)c4c(c3[C@H]2O)C2=NC3(CC[N+]([O-])(CC(C)C)CC3)NC2=C(NC(=O)/C(C)=C\C=C\[C@H](C)[C@H](O)[C@@H](C)[C@@H](O)[C@@H](C)[C@H](OC(C)=O)[C@@H]1C)C4=O (stereo partly specified), which inhibition at 200 µg/mL (Mycobacterium avium [6]) is on record?
A: 44%

Q: And the MIC [3]?
A: 0.6 µg/mL (≈ 0.694 µM)

Q: What about the inhibition at 400 µg/mL (Mycobacterium avium [4]) of the same compound?
A: 53%

Q: With CO[C@H]1/C=C/O[C@@]2(C)Oc3c(C)c(O)c4c(c3C2=O)C2=NC3(CC[N+]([O-])(CC(C)C)CC3)NC2=C(NC(=O)/C(C)=C\C=C\[C@H](C)[C@H](O)[C@@H](C)[C@@H](O)[C@@H](C)[C@H](O)[C@@H]1C)C4=O (stereo partly specified) as the compound, how does the MIC [3] read?
A: 0.6 µg/mL (≈ 0.731 µM)

Q: And the Activity (Mycobacterium avium [4])?
A: inactive

Q: What does the source list for CCCCCCCCCCCCCCCC(=O)N1C2=C3NC(=O)/C(C)=C\C=C\[C@H](C)[C@H](O)[C@@H](C)[C@@H](O)[C@@H](C)[C@H](OC(C)=O)[C@H](C)[C@@H](OC)/C=C/O[C@@]4(C)Oc5c(C)c(O)c(c(c5C4=O)C2=NC12CCN(CC(C)C)CC2)C3=O?
A: MIC [1]: 1.08 µM (≈ 1.17 µg/mL); Selectivity ratio [2]: >32; IC50 (Vero): > 34.8 µM; MIC [3]: 0.1 µg/mL (≈ 0.0921 µM); MBC [5]: 0.14 µM (≈ 0.152 µg/mL)

Q: Which inhibition at 200 µg/mL (Mycobacterium avium [6]) does the source give for CO[C@H]1/C=C/O[C@@]2(C)Oc3c(C)c(O)c4c(c3C2=O)C2=NC3(CCN(CC(C)C)CC3)NC2=C(NC(=O)/C(C)=C\C=C\[C@H](C)[C@H](O)[C@@H](C)[C@@H](O)[C@@H](C)[C@H](OC(C)=O)[C@@H]1C)C4=O [RIFABUTIN] here?
A: > 99%

Q: What about the MIC [1] of the same compound?
A: 0.08 µM (≈ 0.0678 µg/mL)

Q: What about the Selectivity ratio [2] of the same compound?
A: >582

Q: What about the IC50 (Vero) of the same compound?
A: > 46.6 µM

Q: What about the MIC [3] of the same compound?
A: < 0.013 µg/mL

Q: And the MBC [5]?
A: 0.05 µM (≈ 0.0424 µg/mL)

Q: And the inhibition at 100 µg/mL (Mycobacterium avium [7])?
A: > 99%

Q: For CO[C@H]1/C=C/O[C@@]2(C)Oc3c(C)c(O)c4c(c3C2=O)C2=NC3(CCN(CC(C)C)CC3)NC2=C(NC(=O)/C(C)=C\C=C\[C@H](C)[C@H](O)[C@@H](C)[C@@H](O)[C@@H](C)[C@H](O)[C@@H]1C)C4=O, which inhibition at 200 µg/mL (Mycobacterium avium [6]) is on record?
A: 91%

Q: And the MIC [1]?
A: 0.29 µM (≈ 0.233 µg/mL)

Q: And the Selectivity ratio [2]?
A: >161

Q: And the IC50 (Vero)?
A: > 46.6 µM

Q: And the MIC [3]?
A: 0.025 µg/mL (≈ 0.0311 µM)

Q: What about the inhibition at 400 µg/mL (Mycobacterium avium [4]) of the same compound?
A: > 99%

Q: And the MBC [5]?
A: 0.18 µM (≈ 0.145 µg/mL)

Q: For CO[C@H]1/C=C/O[C@@]2(C)Oc3c(C)c(O)c4c(c3[C@H]2O)C2=NC3(CCN(CC(C)C)CC3)NC2=C(NC(=O)/C(C)=C\C=C\[C@H](C)[C@H](O)[C@@H](C)[C@@H](O)[C@@H](C)[C@H](OC(C)=O)[C@@H]1C)C4=O [RIFABUTINOL], which inhibition at 200 µg/mL (Mycobacterium avium [6]) is on record?
A: 86%

Q: What about the MIC [3] of the same compound?
A: < 0.05 µg/mL

Q: What about the inhibition at 400 µg/mL (Mycobacterium avium [4]) of the same compound?
A: > 99%

Q: With CO[C@H]1/C=C/O[C@@]2(C)Oc3c(C)c(O)c4c(c3C2=O)C2=NC3(CCN(CC(C)C)CC3)N(C(C)=O)C2=C(NC(=O)/C(C)=C\C=C\[C@H](C)[C@H](O)[C@@H](C)[C@@H](O)[C@@H](C)[C@H](OC(C)=O)[C@@H]1C)C4=O as the compound, how does the inhibition at 200 µg/mL (Mycobacterium avium [6]) read?
A: > 99%

Q: What about the MIC [1] of the same compound?
A: 0.28 µM (≈ 0.249 µg/mL)

Q: What about the Selectivity ratio [2] of the same compound?
A: >331

Q: And the Activity [8]?
A: Active

Q: What about the IC50 (Vero) of the same compound?
A: > 92.7 µM

Q: And the MIC [3]?
A: < 0.013 µg/mL

Q: And the inhibition at 400 µg/mL (Mycobacterium avium [4])?
A: > 99%

Q: And the MBC [5]?
A: 0.18 µM (≈ 0.16 µg/mL)

Q: And the Activity [9]?
A: Active

Q: With CO[C@H]1/C=C/O[C@@]2(C)Oc3c(C)c(O)c4c(c3[C@H]2O)C2=NC3(CCN(CC(C)C)CC3)N(C(C)=O)C2=C(NC(=O)/C(C)=C\C=C\[C@H](C)[C@H](O)[C@@H](C)[C@@H](O)[C@@H](C)[C@H](OC(C)=O)[C@@H]1C)C4=O as the compound, how does the inhibition at 200 µg/mL (Mycobacterium avium [6]) read?
A: 54%

Q: And the MIC [3]?
A: 0.1 µg/mL (≈ 0.112 µM)

Q: And the inhibition at 400 µg/mL (Mycobacterium avium [4])?
A: > 99%

Q: Which MIC [1] does the source give for CO[C@H]1/C=C/O[C@@]2(C)Oc3c(C)c(O)c4c(O)c(c(/C=N/N5CCN(C)CC5)c(O)c4c3C2=O)NC(=O)/C(C)=C\C=C\[C@H](C)[C@H](O)[C@@H](C)[C@@H](O)[C@@H](C)[C@H](OC(C)=O)[C@@H]1C [RIFAMPIN] here?
A: 1.41 µM (≈ 1.16 µg/mL)

Q: And the Selectivity ratio [2]?
A: 98

Q: What about the IC50 (Vero) of the same compound?
A: 138 µM

Q: What about the MBC [5] of the same compound?
A: 0.39 µM (≈ 0.321 µg/mL)

Q: Which MIC [3] does the source give for CO[C@H]1/C=C/O[C@@]2(C)Oc3c(C)c(O)c4c(c3[C@H]2O)C2=NC3(CCN(CC(C)C)CC3)NC2=C(NC(=O)/C(C)=C\C=C\[C@H](C)[C@H](O)[C@@H](C)[C@@H](O)[C@@H](C)[C@H](O)[C@@H]1C)C4=O here?
A: 0.2 µg/mL (≈ 0.248 µM)

Q: And the Activity (Mycobacterium avium [4])?
A: inactive

Q: With C=CCCCCCCCCC(=O)N1C2=C3NC(=O)/C(C)=C\C=C\[C@H](C)[C@H](O)[C@@H](C)[C@@H](O)[C@@H](C)[C@H](OC(C)=O)[C@H](C)[C@@H](OC)/C=C/O[C@@]4(C)Oc5c(C)c(O)c(c(c5C4=O)C2=NC12CCN(CC(C)C)CC2)C3=O as the compound, how does the inhibition at 200 µg/mL (Mycobacterium avium [6]) read?
A: 60%

Q: What about the MIC [1] of the same compound?
A: 0.08 µM (≈ 0.0811 µg/mL)

Q: And the Selectivity ratio [2]?
A: 462

Q: What about the Activity [8] of the same compound?
A: inactive

Q: What about the IC50 (Vero) of the same compound?
A: 36.9 µM

Q: What about the Activity [10] of the same compound?
A: inactive

Q: And the MIC [3]?
A: 0.1 µg/mL (≈ 0.0987 µM)

Q: And the inhibition at 400 µg/mL (Mycobacterium avium [4])?
A: > 99%

Q: What about the MBC [5] of the same compound?
A: 0.08 µM (≈ 0.0811 µg/mL)

Q: What about the Activity [9] of the same compound?
A: inactive
